Columns and labels:
Type in all cases: cell-based, Drosophila
[1] = system: S2 cells; assay: Primary small molecule screen in ZO Fortified, CyQUANT Direct Proliferation Assay; details: for compound z-score (zS2): 4 days, z vs negative control, hit cutoffs z=±3; for hit call, primary screen: hit cutoffs ±3
Experimental: (§1) Five stock plates of randomized compounds (410 total) were prepared at 75 μM in water (1:133 dilution) using an automated liquid handler (Eppendorf EPMotion 5075). Strategically located negative control wells were incorporated into the stock plates by dosing wells with DMSO (1:133, carrier only control). Randomly placed positive control wells were also included by dosing wells with DMSO (1:133); for flexibility, positive controls were prepared in the working stock. Working stocks plates at 2 and 20 μM (2×) were then prepared in ZO Fortified by diluting the 5 stock plates 1:3.75 (high concentration working stock) and then serially diluting 1:10 (low concentration working stock). Positive control wells were prepared by replacing 10% of the media with 100% fly extract (FEX).
(§2) Cells were rinsed three times in PBS and seeded at a concentration of 50,000 cells/well (50 μL) in ZO Fortified (primary screen) or ZO Fortified supplemented with 2 μM spermidine (secondary screen) in 10 plates. Working stocks, 50 μL, were then immediately added on top of the cells (day 0). Plates were incubated at 25° C. for four days. On the fourth day, plates were imaged at 10× magnification on a confocal microscope using automated screen acquisition (Andor Spinning Disc Confocal Microscope, Metamorph Software). CyQUANT® Direct Proliferation Assay (Invitrogen) was then added (0.25× final conc.) and fluorescent intensity was measured with a plate reader (Biotek Synergy H2).
(§3) Five stock plates of randomized compounds in singlet (410 total) were prepared at 75 μM in water (1:133 dilution) using an automated liquid handler (Eppendorf epMotion® 5075). Ten strategically located negative controls were incorporated into each stock plate by dosing wells with DMSO (1:133, carrier only control) (Zhang, Optimal High-Throughput Screening: Practical Experimental Design and Data Analysis for Genome Scale RNAi Research, 2011). Four randomly placed positive control wells were also included on each plate by dosing wells with DMSO (1:133) for consistency, but for flexibility positive control treatments were prepared in the working stock. Working stocks at 2 and 20 μM (2×) were then prepared in ZO Fortified by diluting the 5 stock plates 1:3.75 (high concentration working stock) and then serially diluting 1:10 (low concentration working stock). Positive control wells were prepared by replacing 10% of the media with 100% fly extract (FEX) (see Zartman et al., Dev. Camb. Engl., 2013, 140, 667-674).
(§4) Cells were rinsed three times in phosphate buffered saline (PBS) and seeded at 50,000 cells/well (50 μL) in ZO Fortified. Working stocks, 50 μL, were then immediately added on top of the cells (day 0). Plates were incubated at 25° C. for four days, and then imaged at 10× magnification on a Nikon microscope using automated screen acquisition in MetaMorph® software. Plates were then treated with CyQUANT® (0.25× final concentration) for one hour at 25° C., and fluorescent intensity was measured with a plate reader (Biotek Synergy H2).
(§5) Strictly standardized mean difference (SSMD) scores for classifying assay quality were calculated with respect to negative controls on a plate-wise basis, with the average assay quality being excellent for both cell lines and screened concentrations. […] As a hit selection metric we used z-scores, which measure the number of standard deviations from the negative control that a small molecule treatment causes. Z-scores were calculated on a plate-wise basis, and hit cutoffs of z=±3 were selected. Visual inspection of images was used to remove false-positive hits, which generally occurred due to autofluorescence of a few of the compounds.

[2] = system: C1.8 cells; assay: as above; details: C1.8 cells in ZO Fortified; for compound z-score (zC1.8): 4 days, z vs negative control, hit cutoffs z=±3; for hit call, primary screen: hit cutoffs ±3
Experimental: as §1, §2, §3, §4, §5

[3] = system: S2 cells; assay: Secondary screen in ZB Media (ZO Fortified with spermidine), CyQUANT; details: hit cutoffs ±3
Experimental: as §1, §2
(§6) Representative positive and negative control wells can be found in FIG. 7. Compound z-scores were calculated similarly, hit cutoffs of ±3 were established visual inspection of confocal images was used to remove false-positive hits. This analysis yielded 8 C1.8 and 27 S2 positive hit compounds and 12 C1.8 and 27 S2 negative hit compounds (FIGS. 8-10).

[4] = system: C1.8 cells; assay: as above; details: C1.8 cells in ZB Media, hit cutoffs ±3
Experimental: as §1, §2, §6

[5] = system: ERK in C1.8 cells; assay: Western blot of ERK and dpERK (MAPK activity)
Experimental: (§7) For western blots, C1.8 and S2 cells were rinsed three times in PBS and seeded in tissue culture flasks at a concentration of 1,000,000 cell/mL in the various media. Cells were cultured until positive control samples (complete media) reached ˜90% confluency, at which point all cell samples were lysed for 30 minutes on ice in a buffer containing 50 mM Tris, 150 mM NaCl, 1% Nonidet P 40 substitute (Sigma 74385), and 1% Sigma protease inhibitor cocktail (P8340). Nucleic acid and cell debris were cleared by centrifugation at 12,000 rpm for 20 minutes at 4° C. Because polyamines are known to play roles in initiation of transcription and translation, “housekeeping” genes routinely used as loading controls for western blots are likely inappropriate for this application. Thus samples were normalized by total loaded protein. Sample protein concentrations were determined three independent times per sample using Coomassie Plus (Bradford) Assay (Thermo Scientific 23238). ANOVA comparison of loading concentrations across all samples found no significant variation between samples (p>0.34). Proteins were resolved by SDS-PAGE in reducing conditions, electroblotted to PVDF membranes (Hybone 10600087), and probed with either 1:1000 anti-rabbit p44/p42 MAPK (Erk1/2) (Cell Signaling) or 1:1500 anti-mouse MAPK (dpERK1/2) (Sigma). Blots were developed using WesternBreeze chromogenic western blot immunodetection kit (Invitrogen) and quantification was done in Fiji (Schindelin et al., Nat. Methods, 2012, 9, 676-682).

[6] = system: ERK in S2 cells; assay: Western blot of ERK and dpERK (MAPK activity); details: spermidine supplementation, p>0.45
Experimental: as §7

[7] = system: S2 cells; assay: Long-term culture in chemically defined medium; details: passaged 1:2 retaining half of spent media
Experimental: (§8) Cells were rinsed 3× in PBS and then seeded at high confluency in ZO Fortified and ZB Media (ZO Fortified supplemented with 1 μM spermidine). Upon reaching confluency, cells were passaged 1:2 retaining half of the spent media.
(§9) C1.8, S2, and Kc167 (Kc) cells were expanded in optimized serum-containing media, C1.8, S2, and Kc167 media, respectively. C1.8 media contains M3 media (Sigma-Aldrich) supplemented with FBS (2%), insulin (5 μg/m), and fly extract (2.5%). S2 media is based on Schneider's media (Gibco® Life Technologies) supplemented with FBS (10%). Kc media containing M3 media supplemented with yeast extract (10 mg/mL), bactopeptone (25 mg/mL), and 5% FBS. All cell lines were obtained and cultured according to instructions from the Drosophila Genomics Resource Center (DGRC). Fly extract was prepared from adult yw flies as described by the DGRC. For culture in chemically defined media, cells were rinsed three times in PBS to remove residual serum and seeded at around 70% confluency in ZO Fortified or ZB Media (ZO Fortified with 1 μM spermidine added at time of passage). Upon reaching confluency, cells were passaged 1:2 retaining half the spent media, similar to routine maintenance in complete media, with cells passaged in ZB Media receiving fresh doses of 1 μM spermidine.

[8] = system: C1.8 cells; assay: Long-term culture in chemically defined medium; details: passaged 1:2 retaining half of spent media
Experimental: as §8, §9

[9] = system: polyamine-depleted C1.8 cells; assay: Polyamine-depleted spermidine dose-response, manual cell count; details: ZO Fortified
Experimental: C1.8 cells were rinsed three times in PBS and seeded in ZO Fortified at 1×10^6 cell/mL. After nine days of culture in ZO Fortified, cells were harvested and seeded in tissue culture flasks in ZO Fortified supplemented with 0, 0.1, 1, or 10 μM spermidine (in triplicate). After 6 days of culture, cells were manually counted.

| SMILES | compound z-score (zS2) [1] | compound z-score (zC1.8) [2] | hit call, primary screen [1] | hit call, primary screen [2] | also measured |
| --- | --- | --- | --- | --- | --- |
| CC(C)(C)c1cc(/C=C(\C#N)C(N)=S)cc(C(C)(C)C)c1O [AG-879] | −13.9 | −17.3 |  |  |  |
| CC(O)=C(C#N)C(=O)Nc1cc(Br)ccc1Br [LFM-A13, α-cyano-β-hydroxy-β-methyl-N-(2,5-dibromophenyl)propen-amide] |  |  |  |  | hit call, secondary screen [3]: positive hit; hit call, secondary screen [4]: positive hit |
| CO[C@@H]1[C@H](N(C)C(=O)c2ccccc2)C[C@H]2O[C@]1(C)n1c3ccccc3c3c4c(c5c6ccccc6n2c5c31)C(=O)NC4 [PKC-412] | −11.0 | −17.1 |  |  |  |
| NCCCCN [putrescine, butane-1,4-diamine] |  |  | positive hits | positive hits |  |
| Cc1cc(/C=C/c2ccc3cc(N(C)C)ccc3[n+]2C)c(C)n1-c1ccccc1 [pyrvinium pamoate] | −13.0 | −17.7 |  |  |  |
| NCCCCNCCCN [spermidine] | 8.7 | 10.0 | positive hit | positive hit | ERK double phosphorylation (dpERK) ([5]; spermidine supplementation (ZB Media) vs ZO Fortified, p<0.012): increase ERK double phosphorylation; total ERK levels ([5]; spermidine supplementation, p>0.45): not significantly influenced; total ERK levels [6]: not significantly influenced; passages reached in long-term culture [7]: 4 passages; passages reached in long-term culture [8]: ≥ 98 passages; passages reached in long-term culture ([8]; listed as Spermidine): > 15 passages; proliferation (cell number) ([9]; 1 μM spermidine compared to 0 or 0.1 μM, 6 days, p<5×10^−10): significant increase in proliferation; proliferation (cell number) ([9]; higher dose (10 μM) spermidine, after 6 days): failed to produce any statistically significant increases in cell number |
| NCCCNCCCCNCCCN [spermine] | 17.7 | 10.4 | positive hit | positive hit |  |
| CN[C@@H]1C[C@H]2O[C@@](C)([C@@H]1OC)n1c3ccccc3c3c4c(c5c6ccccc6n2c5c31)C(=O)NC4 [staurosporine] | −17.3 | −18.6 |  |  |  |
| CC1=C(O)C(=O)[C@@H]2O[C@@H]2C1=O [terreic acid] |  |  |  |  | hit call, secondary screen [3]: positive hit; hit call, secondary screen [4]: positive hit |
